Legend:
ABCC7 = molecular target: T1, ABCC7 (Homo sapiens, UniProt P13569); assay: Correlation of ABCC7 expression with drug sensitivity across the NCI-60; assay type: cell-based; conditions: Pearson correlation of ABCC7 expression with sensitivity of the 60 cell lines; 1429 compounds; inverse, p < 0.0001
T1 construct: profiled in 60 diverse cancer cell lines (the NCI-60) using real-time RT-PCR; endogenous in cells; host or cells: NCI-60 human cancer cell lines
Description: (§1) Expression levels are measured by real-time quantitative RT-PCR using the LightCycler RNA Amplification SYBR Green kit and a LightCycler machine (Roche Biochemicals, Indianapolis, Ind.). […] When possible, the amplicons are designed to encompass exon-intron boundaries to avoid amplification of genomic DNA. Since the Syber Green assay detects accumulation of double stranded DNA, primers are selected (from a battery consisting of about 200 primers) that amplified a single product of the correct size.
(§2) RT-PCR is carried out on 150 ng total RNA, in the presence of 250 nM specific primers. Following reverse transcription (20 min at 50° C.), the PCR reaction consists of 45 cycles of denaturation (15 sec at 95° C.), annealing (30 sec at 58° C.), and elongation (30 sec at 72° C.). No-template (water) reaction mixtures are prepared as negative controls.
(§3) During PCR amplification, fluorescence emission is measured and recorded in real time by the LightCycler. Crossing point values are calculated, using the LightCycler software package, by the Fit Points analysis method, with baseline fluorescence set at 1. The SyberGreen assay measures accumulation of double-stranded products, and the appearance of primer dimers limits quantitation at high cycle numbers. The specificity of amplified products is verified by melting-curve analysis and agarose gel electrophoresis (not shown). The raw results are expressed as number of cycles to reach the crossing point. If the desired product is not detected, the corresponding value is adjusted to crossing points indicating no expression. To assess the contribution of experimental artifacts, selected cell lines are assessed in replicate.
(§4) The two are combined to form a joint dataset that includes 1429 compounds.
(§5) To determine quantitatively how well the 47 genes cluster the cell lines by their tissues of origin, a statistical method is employed wherein the kappa statistic is used to indicate how well the observed clusters correspond to the nine tissue-of-origin classifications. […] To control the overall false type 1 error rate, both a step-down procedure (Westfall and Young, 1993, Resampling-Based Multiple Testing: Examples and Methods for p-value Adjustment (New York: Wiley)) and a step-up procedure (Reiner et al., 2003, Bioinformatics 19:368-375) were employed to adjust for multiple testing of all 47 genes simultaneously. In the Benjamini-Hochberg procedure the p-values are computed in the standard way by permutation, assuming that all distributions are exchangeable: the number of values in the permuted data with correlations over a threshold, divided by the number of compounds and by the number of permutations. In this analysis, the False Discovery Rate (q-value) at which each compound would be declared was calculated using the step-up procedure for positively correlated test statistics (again true because all correlations being compared are computed against the same ABC gene): in this procedure the first q-value for the largest correlation is the Bonferroni-corrected p-value for that gene; then further q-values are calculated as qj=max(pj*1429/j, qj-1). This procedure limits the expected proportion of false positives in the list 1, . . . , j to at most qj.

ABCB11 = molecular target: T2, ABCB11 (Homo sapiens, UniProt O95342); assay: Correlation of ABCB11 expression with drug sensitivity across the NCI-60; assay type: cell-based; conditions: Pearson correlation of ABCB11 expression with sensitivity of the 60 cell lines; 1429 compounds; inverse, p < 0.0001
T2 construct: profiled in 60 diverse cancer cell lines (the NCI-60) using real-time RT-PCR; endogenous in cells; host or cells: NCI-60 human cancer cell lines
T2 sequence (O95342 whole entry): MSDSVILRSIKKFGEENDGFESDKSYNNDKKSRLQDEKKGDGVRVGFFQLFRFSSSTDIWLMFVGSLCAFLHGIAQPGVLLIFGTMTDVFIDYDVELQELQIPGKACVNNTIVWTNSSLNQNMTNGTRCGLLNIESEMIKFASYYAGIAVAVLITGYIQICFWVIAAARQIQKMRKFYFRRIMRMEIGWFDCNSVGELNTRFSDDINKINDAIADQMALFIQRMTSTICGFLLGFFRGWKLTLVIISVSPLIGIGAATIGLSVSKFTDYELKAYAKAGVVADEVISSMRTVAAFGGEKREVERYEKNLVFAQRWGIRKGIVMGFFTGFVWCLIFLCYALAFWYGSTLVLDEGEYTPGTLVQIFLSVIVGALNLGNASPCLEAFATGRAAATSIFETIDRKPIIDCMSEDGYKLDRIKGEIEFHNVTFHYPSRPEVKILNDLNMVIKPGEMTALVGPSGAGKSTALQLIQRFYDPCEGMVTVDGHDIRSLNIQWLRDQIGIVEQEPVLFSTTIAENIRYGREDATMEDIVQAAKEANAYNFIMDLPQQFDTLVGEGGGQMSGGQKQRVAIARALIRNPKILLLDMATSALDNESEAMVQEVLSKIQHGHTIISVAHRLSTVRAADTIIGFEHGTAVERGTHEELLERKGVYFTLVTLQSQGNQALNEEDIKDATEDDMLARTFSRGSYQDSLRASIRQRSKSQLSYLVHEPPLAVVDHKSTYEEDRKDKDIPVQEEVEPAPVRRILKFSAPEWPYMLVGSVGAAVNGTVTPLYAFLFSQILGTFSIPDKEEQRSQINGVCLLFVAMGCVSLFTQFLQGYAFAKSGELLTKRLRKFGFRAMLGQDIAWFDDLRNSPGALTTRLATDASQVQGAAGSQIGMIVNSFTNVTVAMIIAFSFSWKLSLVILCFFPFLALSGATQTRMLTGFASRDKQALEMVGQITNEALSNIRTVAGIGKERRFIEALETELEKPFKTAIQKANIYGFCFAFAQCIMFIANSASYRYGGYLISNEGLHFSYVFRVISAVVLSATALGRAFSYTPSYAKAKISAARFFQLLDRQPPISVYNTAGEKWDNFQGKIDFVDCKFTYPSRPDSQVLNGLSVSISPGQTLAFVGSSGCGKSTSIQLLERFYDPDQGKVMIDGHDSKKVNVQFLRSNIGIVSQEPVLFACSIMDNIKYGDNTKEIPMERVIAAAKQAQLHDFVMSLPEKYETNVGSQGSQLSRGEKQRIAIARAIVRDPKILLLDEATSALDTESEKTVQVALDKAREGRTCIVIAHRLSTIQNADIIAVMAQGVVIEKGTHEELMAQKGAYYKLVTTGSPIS
Description: as §1, §2, §3, §4
(§6) In the Benjamini-Hochberg procedure the p-values are computed in the standard way by permutation, assuming that all distributions are exchangeable: the number of values in the permuted data with correlations over a threshold, divided by the number of compounds and by the number of permutations. In this analysis, the False Discovery Rate (q-value) at which each compound would be declared was calculated using the step-up procedure for positively correlated test statistics (again true because all correlations being compared are computed against the same ABC gene): in this procedure the first q-value for the largest correlation is the Bonferroni-corrected p-value for that gene; then further q-values are calculated as qj=max(pj*1429/j, qj-1). This procedure limits the expected proportion of false positives in the list 1, . . . , j to at most qj.

ABCA3 = molecular target: T3, ABCA3 (Homo sapiens, UniProt Q99758); assay: Correlation of ABCA3 expression with drug sensitivity across the NCI-60; assay type: cell-based; conditions: Pearson correlation of ABCA3 expression with sensitivity of the 60 cell lines; 1429 compounds; inverse, p < 0.0001
T3 construct: profiled in 60 diverse cancer cell lines (the NCI-60) using real-time RT-PCR; endogenous in cells; host or cells: NCI-60 human cancer cell lines
T3 sequence (Q99758 whole entry): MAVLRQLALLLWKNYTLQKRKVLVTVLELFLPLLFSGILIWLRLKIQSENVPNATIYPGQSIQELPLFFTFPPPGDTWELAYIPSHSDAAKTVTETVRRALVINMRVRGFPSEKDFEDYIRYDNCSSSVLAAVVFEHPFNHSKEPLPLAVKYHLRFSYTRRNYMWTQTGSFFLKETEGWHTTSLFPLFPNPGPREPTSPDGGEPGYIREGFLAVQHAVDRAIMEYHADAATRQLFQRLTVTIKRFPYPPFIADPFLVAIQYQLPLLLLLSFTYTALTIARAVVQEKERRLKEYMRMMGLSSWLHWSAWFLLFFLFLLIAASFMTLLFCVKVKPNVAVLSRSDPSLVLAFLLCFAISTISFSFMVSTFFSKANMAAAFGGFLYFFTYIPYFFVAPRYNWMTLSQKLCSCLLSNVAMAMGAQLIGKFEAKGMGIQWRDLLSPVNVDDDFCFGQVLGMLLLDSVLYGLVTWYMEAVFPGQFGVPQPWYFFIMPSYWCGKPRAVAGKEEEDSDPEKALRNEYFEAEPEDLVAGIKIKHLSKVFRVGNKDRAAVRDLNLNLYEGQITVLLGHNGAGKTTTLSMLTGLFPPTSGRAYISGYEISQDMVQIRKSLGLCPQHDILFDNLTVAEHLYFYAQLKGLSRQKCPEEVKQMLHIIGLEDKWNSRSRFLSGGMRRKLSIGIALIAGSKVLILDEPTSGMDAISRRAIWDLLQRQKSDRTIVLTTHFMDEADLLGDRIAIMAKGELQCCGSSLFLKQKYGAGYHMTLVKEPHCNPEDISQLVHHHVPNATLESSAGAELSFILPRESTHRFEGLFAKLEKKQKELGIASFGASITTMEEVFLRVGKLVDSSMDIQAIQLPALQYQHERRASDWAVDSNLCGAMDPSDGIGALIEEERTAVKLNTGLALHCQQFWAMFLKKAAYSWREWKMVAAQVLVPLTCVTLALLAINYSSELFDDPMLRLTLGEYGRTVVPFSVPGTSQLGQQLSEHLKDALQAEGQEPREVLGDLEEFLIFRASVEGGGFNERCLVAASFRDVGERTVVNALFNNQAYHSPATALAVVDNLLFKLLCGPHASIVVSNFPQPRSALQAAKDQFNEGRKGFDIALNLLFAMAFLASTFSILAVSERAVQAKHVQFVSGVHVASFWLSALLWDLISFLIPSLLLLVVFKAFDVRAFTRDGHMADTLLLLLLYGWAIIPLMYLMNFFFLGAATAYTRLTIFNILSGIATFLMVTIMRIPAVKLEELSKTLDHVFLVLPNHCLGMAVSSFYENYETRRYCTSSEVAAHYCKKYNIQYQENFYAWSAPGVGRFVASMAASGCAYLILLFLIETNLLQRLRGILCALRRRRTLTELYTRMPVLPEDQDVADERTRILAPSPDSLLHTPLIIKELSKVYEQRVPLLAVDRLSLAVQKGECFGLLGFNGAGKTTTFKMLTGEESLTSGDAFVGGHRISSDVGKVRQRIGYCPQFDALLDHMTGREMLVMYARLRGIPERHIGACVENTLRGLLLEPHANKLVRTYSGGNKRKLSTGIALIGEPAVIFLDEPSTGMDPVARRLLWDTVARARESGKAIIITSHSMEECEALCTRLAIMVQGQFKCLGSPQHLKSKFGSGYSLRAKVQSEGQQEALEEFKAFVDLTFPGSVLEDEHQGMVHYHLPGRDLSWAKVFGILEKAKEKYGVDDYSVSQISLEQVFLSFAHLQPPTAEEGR
Description: as §1, §2, §3, §4, §5

[1] = tested on: KB-V1 cells (over-express MDR1-P-gp) vs parental KB-3-1 cells; assay: MTT assay using the KB-3-1/KB-V1 cell pair; assay type: cell-based, human
Description: Cell survival is measured by the MTT (3-(4,5-Dimethylthiazol-2-yl)-2,5-diphenyltetrazolium) Assay. Cells are seeded in 100 μl medium at a density of 5000 cells/well in 96 well plates, and serially diluted drug (with or without 2 μM PSC 833) is added the following day in 100 μl medium to give the indicated final concentration. Cells are then incubated for 72 hrs at 37° C. in 5% CO2, and the MTT assay is performed according to the manufacturer's instructions (Molecular Probes, Eugene, Oreg.).
To test whether our approach using the NCI-60 does, in fact, identify new substrates, an MTT assay is used to test all top-scoring compounds that were available from DTP for follow-up experiments. KB-3-1, a human carcinoma cell line, and KB-V1, a multidrug resistant derivative of KB-3-1 that over-expresses MDR1-P-gp (Shen et al., 1986, J. Biol. Chem. 261:7762-7770), are used for the tests. […] This resistance of KB-V-1 cells is invariably reversible by PSC 833. The intrinsic fluorescence of one of the compounds, NSC 634791, allows for the measurement of the effect of MDR1 activity on its export from cells.

ABCB1 = ABCB1 (Homo sapiens, UniProt P08183); assay: Correlation of ABCB1 expression with drug sensitivity across the NCI-60
Procedure, shortened: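 SYBR Green real-time RT-PCR on 150 ng total RNA with 250 nM primers: RT 20 min at 50 °C, then 45 cycles; expression taken as crossing-point cycle number. Correlated with drug sensitivity of 1429 compounds across the cell panel; permutation p-values with step-down and step-up (FDR q-value) multiple-testing correction.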

ABCC1 = molecular target: T4, ABCC1 (Homo sapiens, UniProt P33527); assay: Correlation of ABCC1 expression with drug sensitivity across the NCI-60; assay type: cell-based; conditions: Pearson correlation of ABCC1 expression with sensitivity of the 60 cell lines; 1429 compounds; inverse, p < 0.0001
T4 construct: profiled in 60 diverse cancer cell lines (the NCI-60) using real-time RT-PCR; endogenous in cells; host or cells: NCI-60 human cancer cell lines
Description: as §1, §2, §3, §4, §6

ABCB5 = molecular target: T5, ABCB5 (Homo sapiens, UniProt Q2M3G0); assay: Correlation of ABCB5 expression with drug sensitivity across the NCI-60; assay type: cell-based; conditions: Pearson correlation of ABCB5 expression with sensitivity of the 60 cell lines; 1429 compounds; inverse, p < 0.0001
T5 construct: profiled in 60 diverse cancer cell lines (the NCI-60) using real-time RT-PCR; endogenous in cells; host or cells: NCI-60 human cancer cell lines
T5 sequence (Q2M3G0 1-1257): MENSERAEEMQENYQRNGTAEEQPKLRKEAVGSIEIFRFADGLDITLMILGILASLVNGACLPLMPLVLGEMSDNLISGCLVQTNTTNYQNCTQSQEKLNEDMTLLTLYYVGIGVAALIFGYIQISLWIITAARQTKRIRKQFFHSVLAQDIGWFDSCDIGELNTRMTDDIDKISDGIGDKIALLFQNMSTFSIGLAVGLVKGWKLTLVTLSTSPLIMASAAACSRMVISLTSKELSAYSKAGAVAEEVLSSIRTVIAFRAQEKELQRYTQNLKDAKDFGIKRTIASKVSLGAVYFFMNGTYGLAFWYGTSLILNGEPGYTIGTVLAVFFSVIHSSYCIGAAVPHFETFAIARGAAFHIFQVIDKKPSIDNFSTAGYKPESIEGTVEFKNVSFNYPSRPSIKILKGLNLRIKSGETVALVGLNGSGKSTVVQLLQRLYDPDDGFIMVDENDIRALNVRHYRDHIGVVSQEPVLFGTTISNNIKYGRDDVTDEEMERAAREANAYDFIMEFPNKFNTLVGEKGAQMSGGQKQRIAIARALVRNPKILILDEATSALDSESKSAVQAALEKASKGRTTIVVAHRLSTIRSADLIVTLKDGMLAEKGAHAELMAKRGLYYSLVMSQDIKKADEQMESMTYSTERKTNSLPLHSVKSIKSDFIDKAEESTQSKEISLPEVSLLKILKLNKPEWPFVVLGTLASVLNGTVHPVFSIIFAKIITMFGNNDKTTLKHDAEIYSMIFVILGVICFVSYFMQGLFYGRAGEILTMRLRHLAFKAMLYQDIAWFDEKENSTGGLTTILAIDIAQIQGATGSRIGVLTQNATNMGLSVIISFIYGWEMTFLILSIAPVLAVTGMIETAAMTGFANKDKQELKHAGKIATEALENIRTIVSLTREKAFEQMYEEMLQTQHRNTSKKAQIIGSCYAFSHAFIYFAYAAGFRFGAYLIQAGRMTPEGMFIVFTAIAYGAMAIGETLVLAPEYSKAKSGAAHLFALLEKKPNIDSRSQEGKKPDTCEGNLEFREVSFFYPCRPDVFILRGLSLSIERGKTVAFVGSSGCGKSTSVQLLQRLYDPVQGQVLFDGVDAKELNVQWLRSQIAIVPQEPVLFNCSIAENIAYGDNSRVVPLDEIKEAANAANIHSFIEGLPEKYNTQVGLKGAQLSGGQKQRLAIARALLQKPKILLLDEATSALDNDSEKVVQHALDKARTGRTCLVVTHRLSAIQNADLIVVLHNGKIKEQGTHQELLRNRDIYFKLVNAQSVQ
Description: as §1, §2, §3, §4, §6

T1 sequence (P13569 whole entry): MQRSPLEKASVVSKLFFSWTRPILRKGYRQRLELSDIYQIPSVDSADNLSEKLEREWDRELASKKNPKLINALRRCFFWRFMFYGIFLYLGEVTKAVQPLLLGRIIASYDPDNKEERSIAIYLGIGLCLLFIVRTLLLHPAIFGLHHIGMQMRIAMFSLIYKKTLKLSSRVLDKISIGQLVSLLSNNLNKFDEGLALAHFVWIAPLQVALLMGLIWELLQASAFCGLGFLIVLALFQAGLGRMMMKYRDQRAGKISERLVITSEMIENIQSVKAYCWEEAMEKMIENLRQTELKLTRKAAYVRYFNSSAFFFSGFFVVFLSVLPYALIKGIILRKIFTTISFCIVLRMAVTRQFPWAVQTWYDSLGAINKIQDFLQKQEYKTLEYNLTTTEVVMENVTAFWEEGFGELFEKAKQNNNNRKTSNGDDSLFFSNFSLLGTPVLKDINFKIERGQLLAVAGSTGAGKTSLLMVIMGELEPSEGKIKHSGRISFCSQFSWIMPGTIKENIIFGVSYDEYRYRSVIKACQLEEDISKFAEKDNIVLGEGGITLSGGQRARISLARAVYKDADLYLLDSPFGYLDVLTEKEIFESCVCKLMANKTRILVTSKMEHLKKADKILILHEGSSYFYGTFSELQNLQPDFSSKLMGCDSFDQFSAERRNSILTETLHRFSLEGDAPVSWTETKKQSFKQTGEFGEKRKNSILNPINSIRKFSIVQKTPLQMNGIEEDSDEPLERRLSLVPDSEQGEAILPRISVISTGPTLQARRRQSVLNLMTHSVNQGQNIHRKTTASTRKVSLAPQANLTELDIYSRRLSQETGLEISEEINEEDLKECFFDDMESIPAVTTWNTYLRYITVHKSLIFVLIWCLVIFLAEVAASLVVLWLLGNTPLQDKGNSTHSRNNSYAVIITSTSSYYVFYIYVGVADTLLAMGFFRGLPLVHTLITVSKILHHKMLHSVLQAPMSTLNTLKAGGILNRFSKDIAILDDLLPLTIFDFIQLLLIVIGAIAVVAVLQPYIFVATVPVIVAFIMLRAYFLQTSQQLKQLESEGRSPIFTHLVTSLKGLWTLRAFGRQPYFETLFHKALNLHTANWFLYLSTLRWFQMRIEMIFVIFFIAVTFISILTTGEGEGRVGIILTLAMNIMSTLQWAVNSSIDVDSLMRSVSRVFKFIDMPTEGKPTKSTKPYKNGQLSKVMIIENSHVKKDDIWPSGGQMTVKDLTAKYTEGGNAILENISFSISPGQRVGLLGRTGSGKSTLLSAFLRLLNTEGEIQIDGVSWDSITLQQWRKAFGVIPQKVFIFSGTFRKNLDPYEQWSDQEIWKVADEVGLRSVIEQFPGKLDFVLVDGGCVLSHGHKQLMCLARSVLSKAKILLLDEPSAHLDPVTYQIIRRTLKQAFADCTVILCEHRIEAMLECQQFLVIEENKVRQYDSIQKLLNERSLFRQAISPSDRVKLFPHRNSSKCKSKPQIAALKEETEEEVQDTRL

`CC12CCC(CC1)C(C)(C)O2` [NSC 6171] gave a Correlation (ABCC7) of −0.4552.
Molecule `CC1=CC(=O)C(C)=CC1=O` [NSC 15309] has a Correlation (ABCB11) of −0.4683.
`CC[C@]1(O)C[C@@H]2CN(CCc3c([nH]c4ccccc34)[C@@](C(=O)OC)(c3cc4c(cc3OC)N(C)[C@H]3[C@@](O)(C(=O)OC)[C@H](OC(C)=O)[C@]5(CC)C=CCN6CC[C@]43[C@@H]65)C2)C1.O=S(=O)(O)O` [NSC 49842] gave a Correlation (ABCA3) of −0.3678.
`COc1ccc(NC(=S)N=Nc2c(O)[nH]c3c(Cl)cc(Cl)cc23)cc1` [NSC 73304] was tested, and the “Effect of PSC 833 on the heightened sensitivity of KB-V1 cells” value ([1]; MTT assay with 2 μM PSC 833) was “completely reverses sensitivity” and the “Sensitivity of KB-V1 cells relative to parental KB-3-1 (potentiation by ABCB1)” value ([1]; MTT assay, 72 hrs) was “several-fold more sensitive”.
For `NC(=S)N=Nc1c(O)[nH]c2c(Cl)cc(Cl)cc12` [NSC 73305], the “Effect of PSC 833 on the heightened sensitivity of KB-V1 cells” value ([1]; MTT assay with 2 μM PSC 833) was “completely reverses sensitivity” and the “Sensitivity of KB-V1 cells relative to parental KB-3-1 (potentiation by ABCB1)” value ([1]; MTT assay, 72 hrs) was “several-fold more sensitive”.
With `Cc1c2ccnc(-c3ccccc3)c2cc2c1[nH]c1ccccc12` [NSC 86715] the Correlation (ABCC7) was −0.5696 and the “Correlation of antiproliferative activity with ABCB1 expression” value (ABCB1) was 0.5323.
In the case of `C=CCn1c2ccccc2c2c(C)c3cnccc3c(C)c21` [NSC 150834], the Correlation (ABCB11) is reported as −0.5267.
`O=[N+]([O-])c1cccc(/C=N/Nc2ccc3ccccc3n2)c1O` [NSC 168468] was tested, and the “Effect of PSC 833 on the heightened sensitivity of KB-V1 cells” value ([1]; MTT assay with 2 μM PSC 833) was “completely reversed sensitivity”, the “Sensitivity of KB-V1 cells relative to parental KB-3-1 (potentiation by ABCB1)” value ([1]; MTT assay, 72 hrs) was “equivalent to or greater than the potentiation effect observed for NSC 73306” and the “Correlation of antiproliferative activity with ABCB1 expression” value (ABCB1) was 0.4839.
`COc1ccc(O)c2c(=O)c3c(OC)cc4c(c3oc12)[C@@H]1C=CO[C@@H]1O4` [NSC 178249] showed a Correlation (ABCC7) of −0.5603.
Work on `CCOC(=O)CNC(=O)NC12CC3CC(CC(C3)C1)C2` [NSC 208914] yielded a Correlation (ABCC1) of −0.4950.
`CN1N=C(N)c2cn([C@@H]3O[C@H](COP(=O)(O)O)[C@@H](O)[C@H]3O)c3ncnc1c23` [NSC 280594] showed a Correlation (ABCB5) of −0.3477.
Molecule `CC1(C)C[C@]23[C@@H]4COC(=O)[C@H]2CC[C@H]1[C@@H]3CC4=O` [NSC 284437] has a Correlation (ABCB11) of −0.5273.
With `O=C1C(CO)=C[C@H](O)[C@H]2O[C@@H]12` [NSC 326233] the Correlation (ABCB11) was −0.4430.
With `Cc1c2ccnc(C(N)=O)c2c(C)c2c1[nH]c1ccccc12.Cl` [NSC 335142] the Correlation (ABCB11) was −0.4214.
Molecule `COc1cc(C(=O)N[C@H]2CCc3cc(OC)c(OC)c(OC)c3-c3ccc(OC)c(=O)cc32)cc(OC)c1OC` [NSC 355256] has a Correlation (ABCA3) of −0.3769.
For `O=C1c2cccc(NCCNCCO)c2C(=O)c2cccc(NCCNCCO)c21` [NSC 363997], the “Effect of PSC 833 on the resistance of KB-V1 cells” value ([1]; MTT assay with 2 μM PSC 833) was “reverses the resistance” and the “Resistance of KB-V1 cells in comparison with the parental line” value ([1]; MTT assay, 72 hrs) was “resistant”.
Molecule `COc1cc2c(c(OC(C)=O)c1OC(C)=O)-c1ccc(SC)c(=O)cc1C(NC(C)=O)CC2` (stereo not drawn) [NSC 374979] has a Correlation (ABCA3) of −0.4573.
With `C=C(c1ccccc1)[C@@]1(O)CC[C@@H]1N(CC#N)Cc1ccccc1` [NSC 617644] the Correlation (ABCC1) was −0.5087.

From patent publication US20080214606A1, “Methods for the Identification and Use of Compounds Suitable for the Treatment of Drug Resistant Cancer Cells” (The Government of the United States of America as …, priority 2004, published 2008)
